# Assay results as given in ChEMBL document CHEMBL4814068, “Synthesis and structure-activity relationships of new chiral spiro-β-lactams highly active against HIV-1 and Plasmodium” (Eur J Med Chem, 2021).
# Tests used:
# [1] = Cytotoxicity against human TZM-bl cells assessed as reduction in cell viability by AlamarBlue assay; type: cell-based
# [2] = system: Human immunodeficiency virus 1; assay: Antiviral activity against HIV1 SG3.1 infected in human TZM-bl cells assessed as inhibition of viral replication at 10 ug/ml measured after 48 hrs by single round viral infectivity assay based Steady-Glo luciferase assay; type: functional; settings: Human immunodeficiency virus 1, SG3.1, TZM-bl
# [3] = system: Human immunodeficiency virus 1; assay: Antiviral activity against HIV1 SG3.1 infected in human TZM-bl cells measured after 48 hrs by single round viral infectivity assay based Steady-Glo luciferase assay; type: functional, organism-based; settings: Human immunodeficiency virus 1, SG3.1, TZM-bl; for IC50: 48 h; for IC90: time 48 hrs
# Plasmodium berghei = assay: Antiplasmodial activity against hepatic stage of Plasmodium berghei infected in human Huh7 cells assessed as reduction in parasite growth treated 1 hr prior to infection and measured after 48 hrs by firefly luciferase based bioluminescence assay; type: functional, organism-based; settings: Huh-7
# [4] = system: Human immunodeficiency virus 2; assay: Antiviral activity against HIV2 03PTHCC19 infected in human TZM-bl cells measured after 48 hrs by single round viral infectivity assay based Steady-Glo luciferase assay; type: functional, organism-based; settings: Human immunodeficiency virus 2, 03PTHCC19, TZM-bl
# Huh-7 = assay: Cytotoxicity against human Huh-7 cells assessed as reduction in cell viability by AlamarBlue assay; type: cell-based
# Plasmodium falciparum = assay: Antiplasmodial activity against blood stage of Plasmodium falciparum NF54 assessed as inhibition of parasite growth measured after […] by SYBR green 1 dye based flow cytometry; type: functional, organism-based
SMILES,CC50 [1],inhibition at 10 µg/mL [2],further results
CC1(C)S[C@H]2N(C(=O)C23C=C(C(=O)OC(c2ccccc2)c2ccccc2)N=N3)[C@H]1C(=O)OC(c1ccccc1)c1ccccc1 (some centres undefined),54.4 µM,0%,
COC(=O)[C@@H]1N2C(=O)C3(C(C(=O)OCc4ccccc4)=CCC3C(=O)c3ccccc3)[C@H]2SC1(C)C (some centres undefined),55.4 µM,0%,
COC(=O)C1=CC2(N=N1)C(=O)N1[C@@H](C(=O)NO)C(C)(C)S[C@@H]12 (some centres undefined),76.8 µM,0%,
CC(C)(C)OC(=O)C1=CC2(N=N1)C(=O)N1[C@@H](C(=O)O)C(C)(C)S[C@@H]12 (some centres undefined),79 µM,0%,
CC1(C)S[C@H]2N(C(=O)C23CC=C(C(=O)OCc2ccccc2)C3C(=O)c2ccccc2)[C@H]1C(=O)O (some centres undefined),60.3 µM,0%,
COC(=O)C1CC2(N=N1)C(=O)N1[C@@H](C(=O)OC(c3ccccc3)c3ccccc3)C(C)(C)S[C@@H]12 (some centres undefined),,,IC50 [3]: 0.012 µM; IC50 (Plasmodium berghei): < 10 µM
CC(=O)C1C(C(=O)OCc2ccccc2)=CCC12C(=O)N1[C@@H](C(=O)OC(c3ccccc3)c3ccccc3)C(C)(C)S[C@@H]12 (some centres undefined),,,IC50 [4]: 0.51 µM; IC50 [3]: 0.65 µM; IC50 (Plasmodium berghei): < 5 µM
CCOC(=O)C1=CCC2(C(=O)N3[C@@H](C(=O)OC(c4ccccc4)c4ccccc4)C(C)(C)S[C@@H]32)C1C(=O)c1ccccc1 (some centres undefined),59 µM,99%,Activity (Huh-7): Non-Toxic; IC50 (Plasmodium falciparum): 0.844 µM; IC50 [3]: 0.305 µM; IC90 [3]: 0.479 µM; IC50 (Plasmodium berghei): 1.92 µM
CC1(C)S[C@H]2N(C(=O)C23NN=C(C(=O)OCc2ccccc2)C3C(=O)c2ccccc2)[C@H]1C(=O)OC(c1ccccc1)c1ccccc1 (some centres undefined),17.2 µM,,
CCOC(=O)C1=CCC(C(=O)c2ccccc2)C12C(=O)N1[C@@H](C(=O)OC(c3ccccc3)c3ccccc3)C(C)(C)S[C@@H]12 (some centres undefined),57.1 µM,0%,
CCOC(=O)C1=CC2(N=N1)C(=O)N1[C@@H](C(=O)O)C(C)(C)S[C@@H]12 (some centres undefined),83.8 µM,0%,
COC(=O)C1=CCC2(C(=O)N3[C@@H](C(=O)OC(c4ccccc4)c4ccccc4)C(C)(C)S[C@@H]32)C1C(=O)c1ccccc1 (some centres undefined),53.2 µM,99%,Activity (Huh-7): Non-Toxic; IC50 (Plasmodium falciparum): 1.26 µM; IC50 [3]: 0.058 µM; IC90 [3]: 0.233 µM; IC50 (Plasmodium berghei): 2.29 µM
COC(=O)C1=CCC(C(=O)c2ccccc2)C12C(=O)N1[C@@H](C(=O)OC(c3ccccc3)c3ccccc3)C(C)(C)S[C@@H]12 (some centres undefined),54.9 µM,0%,
CC1(C)S[C@H]2N(C(=O)C23C=C(C(=O)O)N=N3)[C@H]1C(=O)O (some centres undefined),101 µM,0%,
CC1(C)S[C@H]2N(C(=O)C23C=C(C(=O)Oc2ccc4ccccc4c2)N=N3)[C@H]1C(=O)O (some centres undefined),68.6 µM,0%,
COC(=O)C1=CC2(N=N1)C(=O)N1[C@@H](C(=O)OC)C(C)(C)S[C@@H]12 (some centres undefined),89.8 µM,0%,
CC(C)(C)OC(=O)C1=CCC2(C(=O)N3[C@@H](C(=O)OC(c4ccccc4)c4ccccc4)C(C)(C)S[C@@H]32)C1C(=O)c1ccccc1 (some centres undefined),44.4 µM,0%,
CC1(C)S[C@H]2N(C(=O)C23C=C(C(=O)Oc2ccc4ccccc4c2)N=N3)[C@H]1C(=O)OC(c1ccccc1)c1ccccc1 (some centres undefined),49.1 µM,0%,
CC1(C)S[C@H]2N(C(=O)C23CC=C(C(=O)OCc2ccccc2)C3C(=O)OCc2ccccc2)[C@H]1C(=O)OC(c1ccccc1)c1ccccc1 (some centres undefined),43.2 µM,0%,
CC1(C)S[C@H]2N(C(=O)C23C[C@@H]2CN=N[C@]2(C(=O)OCc2ccccc2)C3C(=O)c2ccccc2)[C@H]1C(=O)OC(c1ccccc1)c1ccccc1 (some centres undefined),41.8 µM,0%,
CCOC(=O)C1=CC2(N=N1)C(=O)N1[C@@H](C(=O)OC(c3ccccc3)c3ccccc3)C(C)(C)S[C@@H]12 (some centres undefined),46.9 µM,0%,
CC(C)(C)OC(=O)C1=CCC(C(=O)c2ccccc2)C12C(=O)N1[C@@H](C(=O)OC(c3ccccc3)c3ccccc3)C(C)(C)S[C@@H]12 (some centres undefined),43.2 µM,0%,
CC1(C)S[C@H]2N(C(=O)C23CC=C(C(=O)OCc2ccccc2)C3C(=O)c2ccccc2)[C@H]1C(=O)OC(c1ccccc1)c1ccccc1 (some centres undefined),,,IC50 [4]: 0.008 µM; IC50 (Plasmodium falciparum): 0.43 µM; IC50 [3]: 0.014 µM; IC50 (Plasmodium berghei): 0.55 µM
CC1(C)S[C@H]2N(C(=O)C23N=NC(C(=O)OC(c2ccccc2)c2ccccc2)=C3C(=O)OC(c2ccccc2)c2ccccc2)[C@H]1C(=O)OC(c1ccccc1)c1ccccc1 (some centres undefined),33.5 µM,0%,
CC1(C)S[C@H]2N(C(=O)C23C(C(=O)OCc2ccccc2)=CCC3C(=O)c2ccccc2)[C@H]1C(=O)O (some centres undefined),56.6 µM,0%,
CC(C)(C)OC(=O)C1=CC2(N=N1)C(=O)N1[C@@H](C(=O)OC(c3ccccc3)c3ccccc3)C(C)(C)S[C@@H]12 (some centres undefined),55.1 µM,0%,
